Measurements taken from paper PMC9898036, “VIP152 is a selective CDK9 inhibitor with pre-clinical in vitro and in vivo efficacy in chronic lymphocytic leukemia” (Leukemia, 2022).

Key:
FLT3(ITD) = experiment: KINOMEscan: FLT3(ITD); assay type: binding, human; conditions: 1000 nM
EPHB1 = EPHB1 (Homo sapiens, UniProt P54762); experiment: KINOMEscan: EPHB1; assay type: binding; conditions: 1000 nM, read-out: Percent Control
GSK3B = GSK3B (Homo sapiens, UniProt P49841); experiment: KINOMEscan: GSK3B; assay type: binding; conditions: 1000 nM, read-out: Percent Control
Chain of GSK3B (P49841 whole entry): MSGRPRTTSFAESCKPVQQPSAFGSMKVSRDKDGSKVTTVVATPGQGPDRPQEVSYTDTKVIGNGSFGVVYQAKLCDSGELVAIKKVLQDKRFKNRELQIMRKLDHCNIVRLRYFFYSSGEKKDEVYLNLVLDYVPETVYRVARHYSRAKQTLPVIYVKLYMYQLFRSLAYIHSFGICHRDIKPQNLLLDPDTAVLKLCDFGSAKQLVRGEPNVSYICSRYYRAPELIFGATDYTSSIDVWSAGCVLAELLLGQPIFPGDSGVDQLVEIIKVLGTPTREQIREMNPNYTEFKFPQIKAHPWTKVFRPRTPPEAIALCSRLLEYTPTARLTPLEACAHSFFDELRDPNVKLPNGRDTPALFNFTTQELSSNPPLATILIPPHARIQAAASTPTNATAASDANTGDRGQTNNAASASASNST

SIK = SIK (Homo sapiens, UniProt P57059); experiment: KINOMEscan: SIK; assay type: binding; conditions: 100 nM, read-out: Percent Control
Chain of SIK (P57059 whole entry): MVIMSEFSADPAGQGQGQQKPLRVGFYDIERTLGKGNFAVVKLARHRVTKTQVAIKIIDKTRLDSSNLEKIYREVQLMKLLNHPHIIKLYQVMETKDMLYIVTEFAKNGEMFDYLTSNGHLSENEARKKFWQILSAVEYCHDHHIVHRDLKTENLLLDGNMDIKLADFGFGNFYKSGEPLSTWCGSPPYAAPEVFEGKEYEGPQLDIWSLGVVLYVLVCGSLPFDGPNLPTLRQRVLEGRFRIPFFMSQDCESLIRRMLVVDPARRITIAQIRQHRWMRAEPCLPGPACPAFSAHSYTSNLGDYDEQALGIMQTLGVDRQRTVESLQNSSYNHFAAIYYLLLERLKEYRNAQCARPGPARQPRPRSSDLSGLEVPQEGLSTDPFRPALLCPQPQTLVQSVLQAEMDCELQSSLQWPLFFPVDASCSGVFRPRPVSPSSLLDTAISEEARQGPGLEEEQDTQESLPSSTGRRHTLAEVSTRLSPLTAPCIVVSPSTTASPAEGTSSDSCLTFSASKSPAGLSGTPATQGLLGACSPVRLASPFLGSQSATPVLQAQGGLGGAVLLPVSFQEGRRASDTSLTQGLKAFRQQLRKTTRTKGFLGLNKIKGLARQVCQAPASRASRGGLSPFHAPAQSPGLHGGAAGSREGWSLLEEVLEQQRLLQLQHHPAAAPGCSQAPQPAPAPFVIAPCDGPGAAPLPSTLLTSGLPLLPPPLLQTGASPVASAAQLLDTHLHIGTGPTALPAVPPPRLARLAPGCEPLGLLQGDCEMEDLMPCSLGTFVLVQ

LIMK1 = LIMK1 (Homo sapiens, UniProt P53667); experiment: KINOMEscan: LIMK1; assay type: binding; conditions: 1000 nM, read-out: Percent Control
Chain of LIMK1 (P53667 whole entry): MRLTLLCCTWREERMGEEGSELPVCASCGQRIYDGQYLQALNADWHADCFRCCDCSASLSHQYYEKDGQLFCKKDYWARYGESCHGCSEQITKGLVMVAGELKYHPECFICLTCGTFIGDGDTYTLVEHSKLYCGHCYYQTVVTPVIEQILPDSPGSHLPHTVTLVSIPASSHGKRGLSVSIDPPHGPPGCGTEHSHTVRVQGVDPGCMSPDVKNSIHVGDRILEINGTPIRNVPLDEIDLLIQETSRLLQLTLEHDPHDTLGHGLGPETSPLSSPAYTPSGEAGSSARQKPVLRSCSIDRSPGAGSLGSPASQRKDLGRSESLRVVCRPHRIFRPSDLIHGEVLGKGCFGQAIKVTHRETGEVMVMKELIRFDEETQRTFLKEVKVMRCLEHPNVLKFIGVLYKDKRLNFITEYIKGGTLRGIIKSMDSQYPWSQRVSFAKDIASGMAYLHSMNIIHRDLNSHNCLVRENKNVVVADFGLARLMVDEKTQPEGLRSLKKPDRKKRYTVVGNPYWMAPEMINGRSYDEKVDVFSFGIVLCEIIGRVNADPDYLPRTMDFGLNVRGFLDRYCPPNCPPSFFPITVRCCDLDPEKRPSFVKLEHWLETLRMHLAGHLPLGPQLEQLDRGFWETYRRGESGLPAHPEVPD

SYK = SYK (Homo sapiens, UniProt P43405); experiment: KINOMEscan: SYK; assay type: binding; conditions: 100 nM, read-out: Percent Control
CAMK1G = CAMK1G (Homo sapiens, UniProt Q96NX5); experiment: KINOMEscan: CAMK1G; assay type: binding; conditions: 1000 nM, read-out: Percent Control
CSNK1D = CSNK1D (Homo sapiens, UniProt P48730); experiment: KINOMEscan: CSNK1D; assay type: binding; conditions: 1000 nM, read-out: Percent Control
DCAMKL3 = DCAMKL3 (Homo sapiens, UniProt Q9C098); experiment: KINOMEscan: DCAMKL3; assay type: binding; conditions: 1000 nM, read-out: Percent Control
CDK7 = CDK7 (Homo sapiens, UniProt P50613); experiment: KINOMEscan: CDK7; assay type: binding
Chain of CDK7 (P50613 whole entry): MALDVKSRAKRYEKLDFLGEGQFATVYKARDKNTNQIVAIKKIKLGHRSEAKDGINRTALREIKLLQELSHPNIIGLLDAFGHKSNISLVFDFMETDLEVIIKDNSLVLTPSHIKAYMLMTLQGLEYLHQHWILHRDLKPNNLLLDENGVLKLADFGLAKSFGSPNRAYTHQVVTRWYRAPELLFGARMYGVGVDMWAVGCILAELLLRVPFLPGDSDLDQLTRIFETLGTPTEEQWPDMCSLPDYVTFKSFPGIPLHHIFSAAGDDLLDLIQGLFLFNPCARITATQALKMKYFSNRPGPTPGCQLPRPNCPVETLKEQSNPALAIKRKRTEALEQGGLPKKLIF
Method: The structure and synthesis of VIP152 were recently described by Lücking et al.. (Fig. 1A); however, the selectivity of the molecule in cellular systems has yet to be explored. […] We also performed this experiment at 1000 nM, where CDK9 was inhibited at 99%. […] We found a strong concordance between our data and those of Lücking when comparing the most inhibited kinases. Potential off-target effects of VIP152 were next tested in vitro at a concentration of 10 µM for off-target activity against a broad range of receptors, transporters, ion channels, and enzymes (n = 138) using the Eurofins Diversity Panel.
Kinomescan Kinase Profiling Assay
Kinomescan Assay was performed at DiscoverRX and described in Fabian, et al. 2005, Nat.
Biotechnol. In brief, kinases were produced and subsequently tagged with DNA for qPCR detection.
Streptavidin-coated magnetic beads were bound to biotinylated kinase ligands to serve as a solid support.
VIP152 was dissolved in DMSO and tested across a 10 serial threefold dilution set and compared to a test compound and a DMSO control. Kinases which were inhibited by VIP152 would not be bound to the solid-support resulting in decreased substrate for the qPCR reaction. Kinome map was produced via TreeSpot Analysis from DiscoverRX. […]
NanoBRETTM Target Engagement Assay Protocol […]
The cell and lipid:DNA […]
complex was dispensed into a sterile tissue culture dish and incubated for 22-24 hours. Test compounds were then delivered from the compound source plate to the wells of a 384-well white NBS plate by Echo 550. Cells with NanoBRET Tracer Reagent were then prepared by first removing media from dish of transfected HEK293 cells via aspiration, trypsinization, and allowing cells to dissociate from the dish. Trypsin was neutralized using medium containing serum and centrifuged at 200g for 5 minutes to pellet the cells. Cell density was then adjusted to 2E05 cells/mL in Opti-MEM without phenol red. Complete 20X NanoBRET Tracer Reagent was prepared with Tracer Dilution Buffer and dispensed at a ratio of 1:20 Reagent to cells in the tube. The cell

SNARK = SNARK (Homo sapiens, UniProt Q9H093); experiment: KINOMEscan: SNARK; assay type: binding; conditions: 100 nM, read-out: Percent Control
DLK = DLK (Homo sapiens, UniProt Q12852); experiment: KINOMEscan: DLK; assay type: binding; conditions: 1000 nM, read-out: Percent Control
Chain of DLK (Q12852 whole entry): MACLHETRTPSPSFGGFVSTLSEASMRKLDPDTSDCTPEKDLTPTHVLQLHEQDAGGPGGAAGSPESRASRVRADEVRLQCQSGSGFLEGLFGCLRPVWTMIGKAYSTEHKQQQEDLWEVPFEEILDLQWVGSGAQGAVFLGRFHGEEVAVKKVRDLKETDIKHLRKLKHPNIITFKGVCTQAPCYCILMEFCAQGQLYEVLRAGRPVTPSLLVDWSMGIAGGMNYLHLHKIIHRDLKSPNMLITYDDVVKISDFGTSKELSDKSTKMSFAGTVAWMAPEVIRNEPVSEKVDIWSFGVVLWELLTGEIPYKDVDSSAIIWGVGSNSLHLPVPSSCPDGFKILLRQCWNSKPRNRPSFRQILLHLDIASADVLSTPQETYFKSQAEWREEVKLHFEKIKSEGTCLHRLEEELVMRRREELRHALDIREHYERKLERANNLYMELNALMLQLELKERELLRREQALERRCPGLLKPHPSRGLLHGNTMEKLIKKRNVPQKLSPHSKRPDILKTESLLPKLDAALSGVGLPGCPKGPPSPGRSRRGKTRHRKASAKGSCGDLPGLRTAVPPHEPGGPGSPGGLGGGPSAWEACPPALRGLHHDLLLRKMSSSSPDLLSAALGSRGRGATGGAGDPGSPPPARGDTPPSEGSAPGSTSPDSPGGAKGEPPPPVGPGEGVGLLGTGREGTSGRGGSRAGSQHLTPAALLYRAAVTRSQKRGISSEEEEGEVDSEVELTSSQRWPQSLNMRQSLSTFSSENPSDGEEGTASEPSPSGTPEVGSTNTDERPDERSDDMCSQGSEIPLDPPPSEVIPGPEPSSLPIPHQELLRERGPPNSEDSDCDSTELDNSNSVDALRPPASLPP

LATS1 = LATS1 (Homo sapiens, UniProt O95835); experiment: KINOMEscan: LATS1; assay type: binding; conditions: 1000 nM, read-out: Percent Control
SRMS = SRMS (Homo sapiens, UniProt Q9H3Y6); experiment: KINOMEscan: SRMS; assay type: binding; conditions: 100 nM, read-out: Percent Control
AXL = AXL (Homo sapiens, UniProt P30530); experiment: KINOMEscan: AXL; assay type: binding; conditions: 1000 nM, read-out: Percent Control
ZAK = ZAK (Homo sapiens, UniProt Q9NYL2); experiment: KINOMEscan: ZAK; assay type: binding; conditions: 100 nM, read-out: Percent Control
Chain of ZAK (Q9NYL2 whole entry): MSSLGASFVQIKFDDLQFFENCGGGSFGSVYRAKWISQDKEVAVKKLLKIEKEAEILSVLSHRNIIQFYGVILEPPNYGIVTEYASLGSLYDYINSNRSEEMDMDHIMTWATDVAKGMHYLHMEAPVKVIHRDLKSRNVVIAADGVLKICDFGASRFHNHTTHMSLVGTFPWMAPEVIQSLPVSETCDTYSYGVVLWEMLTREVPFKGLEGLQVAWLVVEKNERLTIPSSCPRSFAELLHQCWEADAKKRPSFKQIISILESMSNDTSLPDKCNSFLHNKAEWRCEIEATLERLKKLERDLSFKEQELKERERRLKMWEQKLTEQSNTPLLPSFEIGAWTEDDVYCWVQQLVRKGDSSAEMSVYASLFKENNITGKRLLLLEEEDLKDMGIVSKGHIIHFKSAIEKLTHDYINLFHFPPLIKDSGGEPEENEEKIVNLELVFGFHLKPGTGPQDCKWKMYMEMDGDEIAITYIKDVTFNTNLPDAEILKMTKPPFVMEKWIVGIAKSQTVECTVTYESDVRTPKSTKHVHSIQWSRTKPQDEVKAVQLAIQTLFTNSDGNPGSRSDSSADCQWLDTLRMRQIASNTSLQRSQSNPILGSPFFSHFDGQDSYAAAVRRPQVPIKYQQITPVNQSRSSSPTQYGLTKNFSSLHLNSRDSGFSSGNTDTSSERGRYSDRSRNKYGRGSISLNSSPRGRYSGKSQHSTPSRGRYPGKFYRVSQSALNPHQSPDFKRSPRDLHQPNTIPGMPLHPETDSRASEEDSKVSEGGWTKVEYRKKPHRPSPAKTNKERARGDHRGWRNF

EGFR = EGFR (Homo sapiens, UniProt P00533); experiment: KINOMEscan: EGFR; assay type: binding; conditions: 1000 nM, read-out: Percent Control
BUB1 = BUB1 (Homo sapiens, UniProt O43683); experiment: KINOMEscan: BUB1; assay type: binding; conditions: 1000 nM, read-out: Percent Control
Muscarinic M1 = Muscarinic M1 (Homo sapiens, UniProt P11229); experiment: Eurofins Diversity Panel; assay type: binding; conditions: hum, Conc. 10 μM
Histamine H3 = Histamine H3 (Homo sapiens, UniProt Q9Y5N1); experiment: Eurofins Diversity Panel; assay type: binding; conditions: hum, Conc. 10 μM
Chain of Histamine H3 (Q9Y5N1 whole entry): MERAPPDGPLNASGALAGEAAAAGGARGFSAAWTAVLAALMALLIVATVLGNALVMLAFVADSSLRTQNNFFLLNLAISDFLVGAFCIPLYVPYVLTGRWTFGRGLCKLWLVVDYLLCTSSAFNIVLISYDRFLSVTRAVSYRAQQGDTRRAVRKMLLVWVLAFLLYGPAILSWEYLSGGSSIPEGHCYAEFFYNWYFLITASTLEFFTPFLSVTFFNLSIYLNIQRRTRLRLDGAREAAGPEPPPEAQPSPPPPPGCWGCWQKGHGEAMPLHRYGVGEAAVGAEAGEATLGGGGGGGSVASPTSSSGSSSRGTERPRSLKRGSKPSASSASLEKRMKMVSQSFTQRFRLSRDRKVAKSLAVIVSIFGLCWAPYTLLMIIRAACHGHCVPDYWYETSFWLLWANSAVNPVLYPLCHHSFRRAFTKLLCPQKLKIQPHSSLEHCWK

Adrenergic α2A = molecular target: T1, Adrenergic α2A (Homo sapiens, UniProt P08913); experiment: Eurofins Diversity Panel; assay type: binding; conditions: hum
T1 construct: purchased Eurofins
T1 sequence (P08913 1-465): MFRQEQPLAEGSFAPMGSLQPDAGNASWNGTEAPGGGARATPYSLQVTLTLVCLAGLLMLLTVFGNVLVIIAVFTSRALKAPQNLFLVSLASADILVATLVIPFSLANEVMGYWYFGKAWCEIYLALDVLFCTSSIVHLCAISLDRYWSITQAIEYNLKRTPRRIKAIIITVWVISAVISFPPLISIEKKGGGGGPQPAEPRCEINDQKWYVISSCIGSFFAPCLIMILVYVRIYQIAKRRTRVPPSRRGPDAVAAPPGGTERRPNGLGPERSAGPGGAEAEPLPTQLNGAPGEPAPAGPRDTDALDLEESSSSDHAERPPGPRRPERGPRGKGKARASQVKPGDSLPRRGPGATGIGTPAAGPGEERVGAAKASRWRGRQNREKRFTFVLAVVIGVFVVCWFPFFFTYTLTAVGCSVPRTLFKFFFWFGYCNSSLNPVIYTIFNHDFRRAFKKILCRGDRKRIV

Dopamine D3 = Dopamine D3 (Homo sapiens, UniProt P35462); experiment: Eurofins Diversity Panel; assay type: binding; conditions: hum, Conc. 10 μM
CSNK1E = CSNK1E (Homo sapiens, UniProt P49674); experiment: KINOMEscan: CSNK1E; assay type: binding; conditions: 1000 nM, read-out: Percent Control
Chain of CSNK1E (P49674 whole entry): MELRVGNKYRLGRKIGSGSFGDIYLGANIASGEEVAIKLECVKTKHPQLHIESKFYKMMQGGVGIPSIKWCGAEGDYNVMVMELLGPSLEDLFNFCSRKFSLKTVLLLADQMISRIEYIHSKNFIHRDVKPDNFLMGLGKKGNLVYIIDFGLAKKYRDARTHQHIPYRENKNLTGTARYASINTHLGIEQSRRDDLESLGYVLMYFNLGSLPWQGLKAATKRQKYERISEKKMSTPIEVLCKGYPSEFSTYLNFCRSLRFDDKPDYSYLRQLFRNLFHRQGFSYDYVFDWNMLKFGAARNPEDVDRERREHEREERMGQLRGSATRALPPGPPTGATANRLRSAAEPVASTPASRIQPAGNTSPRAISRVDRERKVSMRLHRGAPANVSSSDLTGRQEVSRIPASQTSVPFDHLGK

CSNK2A2 = CSNK2A2 (Homo sapiens, UniProt P19784); experiment: KINOMEscan: CSNK2A2; assay type: binding; conditions: 1000 nM, read-out: Percent Control

COc1cc(F)ccc1-c1cc(Nc2cc(CS(C)(=N)=O)ccn2)ncc1F (stereo not drawn) [VIP152]
Percent Control (FLT3(ITD)): 87%
remaining binding at 1 µM (EPHB1): 99%
remaining binding at 1 µM (GSK3B): 11%
remaining binding at 0.1 µM (SIK): 100%
remaining binding at 1 µM (LIMK1): 92%
remaining binding at 0.1 µM (SYK): 100%
remaining binding at 1 µM (CAMK1G): 89%
remaining binding at 1 µM (CSNK1D): 94%
remaining binding at 1 µM (DCAMKL3): 100%
inhibition at 0.1 µM (CDK7; 100 nM): 64%
inhibition at 1 µM (CDK7; 1000 nM): 97.9%
remaining binding at 0.1 µM (CDK7; CDK7, 100 nM, read-out: Percent Control): 36%
remaining binding at 1 µM (CDK7; CDK7, 1000 nM, read-out: Percent Control): 2.1%
remaining binding at 0.1 µM (SNARK): 100%
remaining binding at 1 µM (DLK): 90%
remaining binding at 1 µM (LATS1): 62%
remaining binding at 0.1 µM (SRMS): 98%
remaining binding at 1 µM (AXL): 50%
remaining binding at 0.1 µM (ZAK): 100%
remaining binding at 1 µM (EGFR): 81%
remaining binding at 1 µM (BUB1): 7.1%
inhibition at 10 µM (Muscarinic M1): -10%
inhibition at 10 µM (Histamine H3): -4%
IC50 (Adrenergic α2A): 64 nM
Ki (Adrenergic α2A): 32 nM
nH (Adrenergic α2A): 0.94
inhibition at 10 µM (Adrenergic α2A; Conc. 10 μM): 100%
inhibition at 10 µM (Dopamine D3): 7%
remaining binding at 1 µM (CSNK1E): 89%
remaining binding at 1 µM (CSNK2A2): 69%
